The series can be described thus: Solubility in aqueous media. The format is physicochemical. An excerpt: The compounds mentioned at the outset and pharmaceutically usable salts thereof, such as, for example, ethanolamine salts thereof, have low solubilities in aqueous media. […] These poor solubilities have the consequence that the compound can only be taken up slowly and to an inadequate extent by the body. This is associated with poor bioavailability and a slow increase in the concentration in the blood.

Each structure is given as a SMILES string. Values after ≈ are worked out from the molar mass of the structure shown. Where two headings read alike, the source gives them in different places.

Regarding `COc1ccc(CNc2nc(C3CCC(C(=O)O)CC3)nc3sc4ccccc4c23)cc1Cl` (centres unmarked) [4-[4-(3-Chloro-4-methoxybenzylamino)benzo[4,5]thieno[2,3-d]pyrimidin-2-yl]cyclohexanecarboxylic acid], the solubility reads like this: (aqueous buffer, phosphate buffer (pH 1.0), read-out: solubility) 0.022 µg/mL (≈ 0.0456 µM); (aqueous buffer, phosphate buffer (pH 6), read-out: solubility) 0.0016 µg/mL (≈ 0.00332 µM); (aqueous buffer, phosphate buffer (pH 7.0), read-out: solubility) 0.019 µg/mL (≈ 0.0394 µM); (synthetic gastric juice) 1 mg/100 ml; (synthetic intestinal juice) 6 mg/100 ml.

The record behind these values is US20040082600A1, “Pharmaceutical composition” (priority 2001, published 2004).
